Results as given in US20250289813A1, “CDK INHIBITORS, PHARMACEUTICAL COMPOSITIONS, AND THERAPEUTIC APPLICATIONS” (ONQUALITY PHARMACEUTICALS CHINA LTD., priority 2022, published 2025).

How the values were obtained:
CDK4/cyclin D1 = CDK4/cyclin D1 (Homo sapiens (Human), UniProt P11802); assay: CDK4 Caliper Mobility Shift assay; assay type: biochemical
Method: (§1) A Caliper Mobility Shift assay was used to determine the inhibitory activities of a compound against CDK4/cyclin D1 and CDK6/cyclin D1 in their respective kinase buffers (CDK4: 20 mM HEPES, pH 7.5, and 0.01% Triton X-100; CDK6: 50 mM HEPES, pH 7.5, and 0.0015% BRIJ-35). The CDK4/cyclin D1 and CDK6/cyclin D1 were obtained from PROQINASE and CARNA, respectively. A FAM-labeled peptide was obtained from GL.
(§2) The compound at predetermined concentrations was pre-incubated with CDK4/cyclin D1 or CDK6/cyclin D1 in a 384-well microplate at room temperature for 10 min. The FAM-labeled peptide and ATP were subsequently added to initiate the kinase reactions. The final enzyme concentrations were 15 nM for CDK4 and 7.5 nM for CDK6. The final ATP concentrations were […] for CDK4 and […] for CDK6. The microplate was allowed to incubate at 28° C. The kinase reactions were stopped by adding a stop buffer (100 mM HEPES, pH 7.5, 0.012% BRIJ-35, 0.2% Coating Reagent 3 (Caliper Life Sciences), and […]). Conversion data were recorded and utilized to calculate the percent inhibition values for each compound and an IC50 value was then determined. The results are summarized in Table 1, where the symbol “***” represents a value no greater than 200 nM, the symbol “**” represents a value greater than 200 nM but no greater than 500 nM, and the symbol “*” represents a value greater than 500 nM.

CDK6/cyclin D1 = CDK6/cyclin D1 (Homo sapiens (Human), UniProt Q00534); assay: CDK6 Caliper Mobility Shift assay; assay type: biochemical
Sequence of CDK6/cyclin D1 (Q00534 whole entry): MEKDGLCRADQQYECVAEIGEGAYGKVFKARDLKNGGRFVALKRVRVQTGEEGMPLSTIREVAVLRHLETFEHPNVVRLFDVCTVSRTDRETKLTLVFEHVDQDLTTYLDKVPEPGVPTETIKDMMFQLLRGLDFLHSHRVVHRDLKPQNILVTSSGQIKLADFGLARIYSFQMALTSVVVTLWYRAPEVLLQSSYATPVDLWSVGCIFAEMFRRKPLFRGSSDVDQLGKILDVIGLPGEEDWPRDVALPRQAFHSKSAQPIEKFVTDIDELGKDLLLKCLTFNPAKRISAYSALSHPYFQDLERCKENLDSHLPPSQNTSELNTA
Sequence of CDK6/cyclin D1 (P24385 whole entry partner): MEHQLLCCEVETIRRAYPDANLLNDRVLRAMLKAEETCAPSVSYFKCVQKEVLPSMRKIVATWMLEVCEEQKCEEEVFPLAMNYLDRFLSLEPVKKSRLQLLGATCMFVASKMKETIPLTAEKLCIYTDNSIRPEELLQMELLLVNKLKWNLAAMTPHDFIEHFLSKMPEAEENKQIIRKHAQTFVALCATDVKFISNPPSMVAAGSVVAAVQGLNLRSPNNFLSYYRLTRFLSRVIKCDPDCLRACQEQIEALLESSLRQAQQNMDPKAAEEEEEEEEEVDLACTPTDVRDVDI
Method: as §1, §2

[1] = system: MCF-7 human breast cancer cells; assay: CELLTITER-GLO luminescent cell viability assay; assay type: cell-based; settings: MCF7, 192 h, MCF-7 cells, 8 days, read-out: EC50 (Effect on Cell Viability)
Method: A CELLTITER-GLO luminescent cell viability assay was carried out using MCF-7 human breast cancer cells under the normal growth condition. The MCF-7 human breast cancer cells were grown at 37° C. in a 5% CO2 humidified incubator in EMEM, supplemented 10% FBS, 0.01 mg/mL bovine insulin. The cells were seeded at a 3,000 cells/well in a 96-well tissue culture plate. The cells were allowed to adhere overnight in the incubator. A compound (5 μL) in a medium at a predetermined concentration. After the cells was incubated at 37° C. for 8 days, a CELLTITER-GLO detection solution (100 μL) was added. The cells were mixed on an orbital shaker for 5 min and then incubated for additional 10 min. The plate was read with an ENVISION reader. The results are summarized in Table 2, where the symbol “+++” represents a value no greater than 1 μM, the symbol “++” represents a value greater than 1 μM but no greater than 10 μM, and the symbol “+” represents a value greater than 10 μM.

Sequence of CDK4/cyclin D1 (P11802 whole entry): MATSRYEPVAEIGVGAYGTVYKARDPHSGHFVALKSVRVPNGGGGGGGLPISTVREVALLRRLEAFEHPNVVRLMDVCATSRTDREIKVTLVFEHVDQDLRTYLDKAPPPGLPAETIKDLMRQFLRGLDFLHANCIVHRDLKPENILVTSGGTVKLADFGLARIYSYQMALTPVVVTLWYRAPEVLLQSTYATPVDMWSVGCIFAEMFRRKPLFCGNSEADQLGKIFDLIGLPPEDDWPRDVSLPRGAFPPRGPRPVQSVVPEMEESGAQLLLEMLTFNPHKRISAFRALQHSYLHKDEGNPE
Sequence of CDK4/cyclin D1 (P24385 whole entry partner): as the sequence (P24385 whole entry partner) above

SMILES | IC50 (CDK4/cyclin D1) | IC50 (CDK6/cyclin D1) | EC50 [1]
CC(=O)c1c(C)c2cnc(Nc3ccc(N4CCN(S(=O)(=O)O)CC4)cn3)nc2n(C2CCCC2)c1=O [Compound 6.1, 4-(6-((6-Acetyl-8-cyclopentyl-5-methyl-7-oxo-7,8-dihydropyrido[2,3-d]-pyrimidin-2-yl)amino)pyridin-3-yl)piperazine-1-sulfonic acid] | ≤ 200 nM | 200 to 500 nM | –
CC(=O)c1c(C)c2cnc(Nc3ccc(N4CCN(S(N)(=O)=O)C[C@@H]4C)cn3)nc2n(C2CCCC2)c1=O [Compound A3, (S)-4-(6-((6-acetyl-8-cyclopentyl-5-methyl-7-oxo-7,8-dihydropyrido[2,3-d]-pyrimidin-2-yl)-amino)pyridin-3-yl)-3-methylpiperazine-1-sulfonamide] | ≤ 200 nM | ≤ 200 nM | 1000 to 10000 nM
CC(=O)c1c(C)c2cnc(Nc3ccc(N4CCN(S(=O)(=O)NC(=O)OC(C)(C)C)CC4)cn3)nc2n(C2CCCC2)c1=O [Compound A4, tert-butyl ((4-(6-((6-acetyl-8-cyclopentyl-5-methyl-7-oxo-7,8-dihydropyrido[2,3-d]pyrimidin-2-yl)amino)pyridin-3-yl)piperazin-1-yl)sulfonyl)carbamate] | ≤ 200 nM | ≤ 200 nM | > 10000 nM
CC(=O)c1c(C)c2cnc(Nc3ccc(N4CCN(S(N)(=O)=O)CC4)cn3)nc2n(C2CCCC2)c1=O [Compound A5, 4-(6-((6-acetyl-8-cyclopentyl-5-methyl-7-oxo-7,8-dihydropyrido[2,3-d]pyrimidin-2-yl)amino)pyridin-3-yl)-piperazine-1-sulfonamide] | ≤ 200 nM | 200 to 500 nM | –
CC(=O)c1c(C)c2cnc(Nc3ccc(N4CCN(S(=O)(=O)NC(=O)OCC(=O)O)CC4)cn3)nc2n(C2CCCC2)c1=O [Compound A11, 2-((((4-(6-((6-Acetyl-8-cyclopentyl-5-methyl-7-oxo-7,8-dihydropyrido[2,3-d]-pyrimidin-2-yl)amino)pyridin-3-yl)piperazin-1-yl)sulfonyl)carbamoyl)oxy)acetic acid] | 200 to 500 nM | ≤ 200 nM | –
CC(=O)c1c(C)c2cnc(Nc3ccc(N4CCN(S(=O)(=O)NC(=O)OCCNC(=O)[C@@H](C)N)CC4)cn3)nc2n(C2CCCC2)c1=O [Compound A16, (R)-2-(2-Aminopropanamido)ethyl ((4-(6-((6-acetyl-8-cyclopentyl-5-methyl-7-oxo-7,8-dihydropyrido[2,3-d]pyrimidin-2-yl)amino)pyridin-3-yl)piperazin-1-yl)sulfonyl)-carbamate] | ≤ 200 nM | ≤ 200 nM | –
CC(=O)c1c(C)c2cnc(Nc3ccc(N4CCN(S(=O)(=O)NC(=O)OCCNC(=O)[C@@H](N)CC(C)C)CC4)cn3)nc2n(C2CCCC2)c1=O [Compound A17, (S)-2-(2-Amino-4-methylpentanamido)ethyl ((4-(6-((6-acetyl-8-cyclopentyl-5-methyl-7-oxo-7,8-dihydropyrido[2,3-d]pyrimidin-2-yl)amino)pyridin-3-yl)piperazin-1-yl)-sulfonyl)carbamate] | ≤ 200 nM | ≤ 200 nM | –
CC(=O)c1c(C)c2cnc(Nc3ccc(N4CCN(S(=O)(=O)NC(=O)OCCNC(=O)CN)CC4)cn3)nc2n(C2CCCC2)c1=O [Compound A20, 2-(2-Aminoacetamido)ethyl ((4-(6-((6-acetyl-8-cyclopentyl-5-methyl-7-oxo-7,8-dihydropyrido[2,3-d]pyrimidin-2-yl)amino)pyridin-3-yl)piperazin-1-yl)sulfonyl)carbamate] | ≤ 200 nM | ≤ 200 nM | –
CC(=O)c1c(C)c2cnc(Nc3ccc(N4CCN(S(=O)(=O)NC(=O)OCCNC(=O)[C@H]5CCCN5)CC4)cn3)nc2n(C2CCCC2)c1=O [Compound A21, (R)-2-(Pyrrolidine-2-carboxamido)ethyl ((4-(6-((6-acetyl-8-cyclopentyl-5-methyl-7-oxo-7,8-dihydropyrido[2,3-d]pyrimidin-2-yl)amino)pyridin-3-yl)piperazin-1-yl)sulfonyl)-carbamate] | ≤ 200 nM | ≤ 200 nM | –
CC(=O)c1c(C)c2cnc(Nc3ccc(N4CCN(S(=O)(=O)NC(=O)C5CC5)CC4)cn3)nc2n(C2CCCC2)c1=O [Compound A38, N-((4-(6-((6-Acetyl-8-cyclopentyl-5-methyl-7-oxo-7,8-dihydropyrido[2,3-d]-pyrimidin-2-yl)amino)pyridin-3-yl)piperazin-1-yl)sulfonyl)cyclopropanecarboxamide] | ≤ 200 nM | ≤ 200 nM | –
CC(=O)c1c(C)c2cnc(Nc3ccc(N4CCN(S(=O)(=O)NC(=O)C5CCOCC5)CC4)cn3)nc2n(C2CCCC2)c1=O [Compound A40, N-((4-(6-((6-Acetyl-8-cyclopentyl-5-methyl-7-oxo-7,8-dihydropyrido[2,3-d]-pyrimidin-2-yl)amino)pyridin-3-yl)piperazin-1-yl)sulfonyl)tetrahydro-2H-pyran-4-carboxamide] | ≤ 200 nM | ≤ 200 nM | –
CNS(=O)(=O)N1CCN(c2ccc(Nc3ncc4c(C)c(C(C)=O)c(=O)n(C5CCCC5)c4n3)nc2)CC1 [Compound A46, 4-(6-((6-Acetyl-8-cyclopentyl-5-methyl-7-oxo-7,8-dihydropyrido[2,3-d]-pyrimidin-2-yl)amino)pyridin-3-yl)-N-methylpiperazine-1-sulfonamide] | ≤ 200 nM | 200 to 500 nM | –
CC(=O)c1c(C)c2cnc(Nc3ccc(N4CCN(S(=O)(=O)N(C)C)CC4)cn3)nc2n(C2CCCC2)c1=O [Compound A50, 4-(6-((6-Acetyl-8-cyclopentyl-5-methyl-7-oxo-7,8-dihydropyrido[2,3-d]-pyrimidin-2-yl)amino)pyridin-3-yl)-N,N-dimethylpiperazine-1-sulfonamide] | 200 to 500 nM | 200 to 500 nM | –
CC(=O)c1c(C)c2cnc(Nc3ccc(N4CCN(S(=O)(=O)n5ccnc5N)CC4)cn3)nc2n(C2CCCC2)c1=O [Compound A57, 6-Acetyl-2-((5-(4-((2-amino-1H-imidazol-1-yl)sulfonyl)piperazin-1-yl)pyridin-2-yl)amino)-8-cyclopentyl-5-methylpyrido[2,3-d]pyrimidin-7(8H)-one] | ≤ 200 nM | ≤ 200 nM | –
CC(=O)c1c(C)c2cnc(Nc3ccc(N4CCN(S(=O)(=O)n5ccnc5)CC4)cn3)nc2n(C2CCCC2)c1=O [Compound A58, 2-((5-(4-((1H-Imidazol-1-yl)sulfonyl)piperazin-1-yl)pyridin-2-yl)amino)-6-acetyl-8-cyclopentyl-5-methylpyrido[2,3-d]pyrimidin-7(8H)-one] | – | – | ≤ 1000 nM
CC(=O)c1c(C)c2cnc(Nc3ccc(N4CCN(S(=O)(=O)OC5CCCC5)CC4)cn3)nc2n(C2CCCC2)c1=O [Compound B4, Cyclopentyl 4-(6-((6-acetyl-8-cyclopentyl-5-methyl-7-oxo-7,8-dihydropyrido[2,3-d]pyrimidin-2-yl)amino)pyridin-3-yl)piperazine-1-sulfonate] | ≤ 200 nM | 200 to 500 nM | –
CC(=O)c1c(C)c2cnc(Nc3ccc(N4CCN(S(=O)(=O)C(C)C)CC4)cn3)nc2n(C2CCCC2)c1=O [Compound C1, 6-acetyl-8-cyclopentyl-2-[[5-(4-isopropylsulfonylpiperazin-1-yl)-2-pyridyl]-amino]-5-methylpyrido[2,3-d]pyrimidin-7-one] | ≤ 200 nM | ≤ 200 nM | –
